Results: a melting point compilation (Tetko et al.)

Compound | melting point [°C]
CCC(C)C(C)(COC(N)=O)COC(N)=O (centres undefined) | 77
COc1ccc(C2(C)CCc3oc4ccccc4c3-c3oc(C)cc32)cc1 (centres undefined) | 145
CCOC(=O)C(C)(C)C1=CCC2(C)C(CCC3C2CCC2(C)C(OCc4ccccc4)CCC32)C1 (centres undefined) | 138
CCCCCCCCCCCCCCCCCC(=O)OCCOCCOCCOCCO | 40
Nc1ccc(CN2CCCC2)cc1 | 46 to 48
CC12CCC(=O)C(O)=C1CCC1C2CCC2(C)C1CCC2(C)O (centres undefined) | 170
CCCCCCCCCCCCCCCCCC(=O)Oc1ccccc1 | 52
Clc1ccc2c(c1)C(c1ccccc1)=NCc1nncn1-2 | 228
CCCCCCCCOC(=O)CCCC | -42.3
Fc1cc(Br)cc(Br)c1Br | 30 to 34
O=C1NC(=O)C(=Cc2ccc(Cl)cc2)C(=O)N1 | 243
Cc1noc(C)c1N | 52 to 54
Nc1ncn[nH]1 | 159
FC(F)(F)c1ccc(N2CCOCC2)c(CCl)c1 | 52 to 54
Cc1nc(C)c(Cl)c(O)c1Cl | 320
CNC(=O)C(F)(F)F | 51
FC(F)(F)C(F)(F)C(F)(F)C(F)(F)C(F)(F)C(F)(F)OC(F)(F)C(F)(F)C(F)(F)C(F)(F)C(F)(F)C(F)(F)F | -90
CC(Cc1ccccc1)NCCC(c1ccccc1)c1ccccc1 (centres undefined) | 38
CC1(C)C(C=C(Cl)C(F)(F)F)C1C(=O)OC(C#N)c1cccc(Oc2ccccc2)c1 (centres undefined) | 55.6

Compound | melting point [°C]
NC1=NCC(c2ccccc2)O1 (centres undefined) | 136
CC12CCCCC1CCC1C2CCC2(C)C(OCc3ccccc3)CCC12 (centres undefined) | 160
CCC1NC(=O)c2cc(S(N)(=O)=O)c(Cl)cc2N1 (centres undefined) | 251
O=Cc1ccc(N2CCCC2)cc1 | 85
CC/C=C/Br | -100
Nc1ccc(F)cc1N | 86 to 88
CCCCCCCCN(C)C | -57
Nc1nsc(SCc2ccccc2)n1 | 120 to 121
CC(CCCO)C1CCC2C3CCC4CCCCC4(C)C3CCC12C (centres undefined) | 130
O=Cc1nc(-c2ccccc2Cl)c2cc(Cl)ccc2n1 | 159 to 160
O=C(c1ccccc1)N1CC(c2ccccc2)C=C1c1ccccc1 (centres undefined) | 180
OC(CCl)C(O)CCl (centres undefined) | 126
Nc1ccc(C(F)(F)F)cn1 | 47
NC(=O)C(Br)(Br)C(N)=O | 205
Nc1ccc(SSc2ccc(N)cc2)cc1 | 77
N#CCc1ccc(Cc2ccccc2)cc1 | 35.5
CCSc1nc(N)nc(C(C)C)n1 | 115 to 117
Nc1nc(N)nc(Cl)n1 | 320
O=C(O)C(O)c1ccc(Cl)cc1 (centres undefined) | 120

Compound | melting point [°C]
Nc1c2c(nc3ccccc13)CCCC2O (centres undefined) | 245
CC1(C)C2CCC1(C)C(O)/C2=C\CC(=O)O (centres undefined) | 51 to 52
O=S(=O)(O)CCCN1CCN(CCO)CC1 | 231
CCCCCCCCCCCS | -3
O=C(O)CCC(F)(F)C(F)(F)C(F)(F)C(F)(F)C(F)(F)C(F)(F)F | 62 to 64
O=C1C(Cl)=C(Cl)C(=O)c2ccccc21 | 195
Nc1cc[nH]n1 | 37
CNC(=O)CCl | 46
CCCCCCCOO | 35.5
c1ccc(-c2nnc3n2CN(c2ccccn2)CS3)cc1 | 223 to 224
Oc1c(Cl)c(O)c(Cl)c(O)c1Cl | 136
OC1CCN(Cc2ccccc2)CC1 | 62
FC(F)=C(F)C(F)=C(F)F | -132
Fc1ccc(-n2cc[nH]c2=S)cc1 | 207 to 209
O=C(O)CCCCCCCCCCO | 65.5
NC(=O)C(Cl)(Cl)Cl | 142
BrCc1cccc2nonc12 | 77 to 79
CCCCCCS(=O)(=O)O | 16.1
CC(C)(C)c1cc(C(F)(F)F)n[nH]1 | 178 to 180

Further lines, results first:

melting point [°C] | Compound
101 | CN(C)c1ccc(C(O)c2ccc(N(C)C)cc2)cc1
100 to 102 | CC(C)CC1(NC(=O)c2ccccc2)COCOC1=O (racemic)
200 to 205 | O=C(O)c1ccccc1C(=O)O
93 | O=[N+]([O-])c1ccc2c(c1)CCN2
158 | O=C(O)COc1ccccc1[N+](=O)[O-]
103 | N#Cc1ccc(S(=O)(=O)Cl)c(Cl)c1
68 | Cc1cc(N(C)C)ccc1N=Nc1ccccc1
71 to 72 | Nc1ccc(Oc2ccccc2)nc1
138 to 141 | O=C1CC[C@H]2CCc3ccccc3[C@@H]2O1
82 to 83 | CC(=O)Nc1ccc(CC#N)cc1
200 | OCC1OC(Oc2ccc(O)cc2)C(O)C(O)C1O (centres undefined)
186 to 188 | CC(=O)Nc1ccc(Br)c(C(=O)O)c1
117 to 122 | Cc1ccc([N+](=O)[O-])c(N)c1C
174 to 178 | O=C(C=Cc1ccccc1)c1ccc(O)cc1
55 to 56 | O=S(=O)(Cl)Cc1ccccc1F
118 | O=C(O)C(CO)c1ccccc1 (centres undefined)
91 to 94 | COC(=O)c1sccc1NC(=O)CBr
115 | COc1ccc(C(=O)/C(=N\Nc2cc(Cl)ccc2Cl)S(=O)(=O)c2ccccc2)cc1
174 to 175 | O=C(O)c1ccsc1Br
200 | N/N=C(/C(=O)c1ccc2c3c(cccc13)CC2)c1ccccc1
204 | Cc1cc(Br)c(N)c(C(=O)O)c1
120 | O=C(Nc1ccccc1)c1cccnc1
115 to 117 | Cc1noc(-c2ccc(C(=O)Cl)cc2)n1
184 | CC(=O)Nc1cccc(N)c1C(=O)O
115 to 117 | NNC(=O)Cc1ccccc1
72 | CCOC(=O)N(c1ccccc1)c1ccccc1

melting point [°C] | Compound
37 | Cc1cccc(C(C)(C)C)c1N=C=O
69 to 70 | N#Cc1ccccc1S(=O)(=O)Cl
170 to 171 | CC(=O)OC1CC[C@@]2(C)C(CC[C@@H]3[C@@H]2CC[C@@]2(C)[C@H]3CC[C@]2(O)C#Cc2ccccc2)C1 (some centres undefined)
194 | NNC(=O)c1ccc(-c2ccccc2)cc1
93.5 to 94 | Cc1nc2cc(C)c(C)cc2o1
134 | CC(C)(C)N(NC(=O)c1ccccc1)C(=O)c1ccc(Cl)cc1Cl
134 to 136 | CC(=O)Nc1ccc(I)cc1C(F)(F)F
80 to 82 | CN1CCN(C)c2cc(C#N)ccc21
57 to 59 | CCOC(=O)C=Cc1ccc(O)c(OC)c1
75 | O=C(Nc1cccc(Cl)c1)OCC#CCCl
143 | Cc1ccc(N2C(=O)C=CC2=O)cc1Cl
18 | CC1=CCC(=O)O1
93 | CN(C)c1ccc(/C=C/C(=O)CCc2ccccc2)cc1
127 to 129 | Clc1nccc(-c2cccs2)n1
98 | OCc1nc2ccccc2s1
124 | O=[N+]([O-])c1cccc(C=NO)c1
230 | O=C(Oc1cc(Cl)cc(Cl)c1)c1ccc(C(=O)Oc2cc(Cl)cc(Cl)c2)cc1
176 | CC1=C(C(=O)OCCC(C)C)C(c2ccco2)NC(=O)N1 (centres undefined)
64 | CCOC(=O)Cc1ccc([N+](=O)[O-])cc1
150 to 152 | O=S(=O)(Cl)c1ccc(S(=O)(=O)N2CCOCC2)cc1
189 | Cc1[nH]c2ccc([N+](=O)[O-])cc2c1C
178 | Cc1ccccc1/N=N/c1c(C)[nH]c(=S)c(C#N)c1C
110 to 112 | CCCCOc1ccc(NC(C)=O)cc1
43 | CC(=O)c1c(Cl)cccc1Cl
131 | COC(=O)c1cccc([N+](=O)[O-])c1O
236 | O=C(c1cccs1)c1nn2c(nc(=O)c3ccccc32)s1

melting point [°C] | Compound
112 | N#CC1(OC(=O)c2ccccc2)Cc2ccccc21 (centres undefined)
128 | CCOc1cccc2c(=O)c(=O)c12
150 | N#CC(=CNc1ccc(O)cc1)c1ccccc1
79 to 81 | CC(SCc1ccccc1)C(=O)O (centres undefined)
102 | COc1ccc2c(=O)c(=O)c2c1
296 | Cn1c2ccccc2n2c(=O)c3ccncc3c(C#N)c12
172 | O=Nc1c(Cl)cccc1Cl
141 | NC(=O)c1ccc(Cl)c(Cl)c1
159 to 160 | O=C(O)C1CC(=O)N(Cc2ccco2)C1 (centres undefined)
175 to 176 | O=[N+]([O-])c1cc(C=NO)ccc1C=NO
160 | CC(C)c1c(C(=O)Nc2ccccc2)c(-c2ccccc2)c(-c2ccc(F)cc2)n1CCC(O)CC(O)CC(=O)O (centres undefined)
127 to 132 | O=C(O)c1ccccc1CCc1ccccc1
95.5 | CC(C)CNC(=O)N1CCNC1=O
74 to 78 | O=Cc1ccc(OCc2c(F)cccc2Cl)cc1
190 | Clc1ccc2c(c1)oc1c(Cl)c(Cl)cc(Cl)c12
116 to 118 | OCc1snnc1-c1ccccc1
206 to 207 | COc1ccc(CCN2CCc3c([nH]c4ccccc34)C2=O)cc1OC
163 | Cc1cccc(Nc2ccncc2S(=O)(=O)NC(=O)NC(C)C)c1
149 | CC(=O)Nc1ccc(S(=O)(=O)Cl)cc1
287 to 289 | N#CC(C#N)=c1ccc(=C(C#N)C#N)cc1
52 | CC(=O)OC1CCCc2c(C)ccc(C)c21 (centres undefined)
94 to 96 | CSc1nc(=O)n(Cc2ccccc2)c2c1CCC2
186 to 190 | Cc1cccc(OCC(=O)O)c1C
53.3 | CC(=O)OC(OC(C)=O)c1ccco1
18 | O=C(Cl)c1c(Cl)cccc1Cl
